Data published in ChEMBL document CHEMBL5252532, “Oxindole: A chemical prism carrying plethora of therapeutic benefits” (Eur J Med Chem, 2016).
Values after ≈ are worked out from the molar mass of the structure shown.

Key:
[1] = biological target: Vascular endothelial growth factor receptor 1 (Homo sapiens, UniProt P17948); test: Inhibition of VEGFR1 (unknown origin) in presence of ATP
[2] = biological target: Aldo-keto reductase family 1 member B1 (Homo sapiens, UniProt P15121); test: Inhibition of AR (unknown origin) assessed as glycation activity
[3] = organism: Homo sapiens; test: Inhibition of ERK (unknown origin) at 100 uM by western blot assay relative to control
[4] = system: GAMG; test: Anticancer activity against human GAMG cells assessed as cell growth inhibition; assay type: functional, cell-based
[5] = system: SK-N-BE(2); test: Anticancer activity against human SKNBE2 cells assessed as cell growth inhibition; assay type: functional, cell-based
[6] = system: T-24; test: Anticancer activity against human T24 cells assessed as cell growth inhibition incubated for 24 hrs by MTT assay; assay type: functional, cell-based; settings: T-24, 24 h
[7] = system: MGC-803; test: Anticancer activity against human MGC-803 cells assessed as cell growth inhibition incubated for 24 hrs by MTT assay; assay type: functional, cell-based; settings: MGC-803, 24 h
[8] = biological target: High affinity nerve growth factor receptor (Homo sapiens, UniProt P04629); test: Inhibition of TrkA (unknown origin)
Sequence of High affinity nerve growth factor receptor (P04629 whole entry): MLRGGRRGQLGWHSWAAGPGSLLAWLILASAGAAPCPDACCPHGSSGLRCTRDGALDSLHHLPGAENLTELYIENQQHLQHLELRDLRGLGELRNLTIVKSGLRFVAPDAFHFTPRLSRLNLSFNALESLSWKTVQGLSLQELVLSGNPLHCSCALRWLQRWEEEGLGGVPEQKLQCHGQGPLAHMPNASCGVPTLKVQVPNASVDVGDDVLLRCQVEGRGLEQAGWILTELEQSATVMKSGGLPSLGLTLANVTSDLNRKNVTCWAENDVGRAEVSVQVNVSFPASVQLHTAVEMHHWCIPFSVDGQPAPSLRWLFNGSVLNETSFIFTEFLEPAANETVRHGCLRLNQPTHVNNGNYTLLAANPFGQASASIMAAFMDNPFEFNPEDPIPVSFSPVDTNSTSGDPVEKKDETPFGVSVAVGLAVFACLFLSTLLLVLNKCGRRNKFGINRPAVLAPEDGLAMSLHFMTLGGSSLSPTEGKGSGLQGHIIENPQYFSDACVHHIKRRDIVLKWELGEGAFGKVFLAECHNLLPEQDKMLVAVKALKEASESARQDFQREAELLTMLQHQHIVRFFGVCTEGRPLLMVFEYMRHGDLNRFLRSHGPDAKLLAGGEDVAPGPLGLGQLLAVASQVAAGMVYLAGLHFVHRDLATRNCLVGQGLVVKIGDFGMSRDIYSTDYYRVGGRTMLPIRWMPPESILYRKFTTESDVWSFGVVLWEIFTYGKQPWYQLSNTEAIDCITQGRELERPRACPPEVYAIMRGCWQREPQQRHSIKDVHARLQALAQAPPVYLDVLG

[9] = system: MDA-MB-435; test: Anticancer activity against human MDA-MB-435 cells assessed as cell growth inhibition by MTT assay; assay type: functional, cell-based
[10] = system: RKO; test: Anticancer activity against human RKO cells assessed as cell growth inhibition by MTT assay; assay type: functional, cell-based
[11] = system: Staphylococcus aureus; test: Antibacterial activity against Staphylococcus aureus assessed as bacterial growth inhibition; assay type: functional
[12] = system: Escherichia coli; test: Antibacterial activity against Escherichia coli assessed as bacterial growth inhibition; assay type: functional
[13] = biological target: Cyclin-dependent kinase 1 (Homo sapiens, UniProt P06493); test: Inhibition of human CDK1 using Biotinaminohexyl-Ala-Arg-Arg-Pro-Met-Ser-Pro-Lys-LysLys-Ala-CONH2 peptide as substrate incubated for 20 to 30 mins by scintillation counter analysis
Sequence of Cyclin-dependent kinase 1 (P06493 whole entry): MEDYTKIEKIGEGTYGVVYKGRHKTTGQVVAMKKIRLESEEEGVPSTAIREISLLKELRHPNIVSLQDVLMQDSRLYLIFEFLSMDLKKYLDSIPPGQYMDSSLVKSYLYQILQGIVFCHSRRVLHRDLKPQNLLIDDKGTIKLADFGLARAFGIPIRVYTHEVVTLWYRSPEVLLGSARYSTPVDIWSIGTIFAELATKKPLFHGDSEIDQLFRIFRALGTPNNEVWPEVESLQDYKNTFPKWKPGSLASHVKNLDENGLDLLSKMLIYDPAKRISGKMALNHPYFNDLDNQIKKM

[14] = biological target: Cyclin-dependent kinase 2 (Homo sapiens, UniProt P24941); test: Inhibition of human CDK2 […]-Pro-Met-Ser-Pro-Lys-LysLys-Ala-CONH2 peptide as substrate incubated for 30 to 60 mins by scintillation counter analysis
[15] = system: Mycobacterium tuberculosis; test: Antitubercular activity against Mycobacterium tuberculosis H37Rv strain assessed as bacterial growth inhibition; assay type: functional
[16] = system: A549; test: Anticancer activity against human A549 cells assessed as cell growth inhibition; assay type: functional, cell-based
[17] = system: Streptococcus pyogenes; test: Antibacterial activity against Streptococcus pyogenes assessed as bacterial growth inhibition; assay type: functional
[18] = system: Pseudomonas aeruginosa; test: Antibacterial activity against Pseudomonas aeruginosa assessed as bacterial growth inhibition; assay type: functional
[19] = system: MCF7; test: Growth inhibition of human MCF7 cells; assay type: functional

Sequence of Vascular endothelial growth factor receptor 1 (P17948 whole entry): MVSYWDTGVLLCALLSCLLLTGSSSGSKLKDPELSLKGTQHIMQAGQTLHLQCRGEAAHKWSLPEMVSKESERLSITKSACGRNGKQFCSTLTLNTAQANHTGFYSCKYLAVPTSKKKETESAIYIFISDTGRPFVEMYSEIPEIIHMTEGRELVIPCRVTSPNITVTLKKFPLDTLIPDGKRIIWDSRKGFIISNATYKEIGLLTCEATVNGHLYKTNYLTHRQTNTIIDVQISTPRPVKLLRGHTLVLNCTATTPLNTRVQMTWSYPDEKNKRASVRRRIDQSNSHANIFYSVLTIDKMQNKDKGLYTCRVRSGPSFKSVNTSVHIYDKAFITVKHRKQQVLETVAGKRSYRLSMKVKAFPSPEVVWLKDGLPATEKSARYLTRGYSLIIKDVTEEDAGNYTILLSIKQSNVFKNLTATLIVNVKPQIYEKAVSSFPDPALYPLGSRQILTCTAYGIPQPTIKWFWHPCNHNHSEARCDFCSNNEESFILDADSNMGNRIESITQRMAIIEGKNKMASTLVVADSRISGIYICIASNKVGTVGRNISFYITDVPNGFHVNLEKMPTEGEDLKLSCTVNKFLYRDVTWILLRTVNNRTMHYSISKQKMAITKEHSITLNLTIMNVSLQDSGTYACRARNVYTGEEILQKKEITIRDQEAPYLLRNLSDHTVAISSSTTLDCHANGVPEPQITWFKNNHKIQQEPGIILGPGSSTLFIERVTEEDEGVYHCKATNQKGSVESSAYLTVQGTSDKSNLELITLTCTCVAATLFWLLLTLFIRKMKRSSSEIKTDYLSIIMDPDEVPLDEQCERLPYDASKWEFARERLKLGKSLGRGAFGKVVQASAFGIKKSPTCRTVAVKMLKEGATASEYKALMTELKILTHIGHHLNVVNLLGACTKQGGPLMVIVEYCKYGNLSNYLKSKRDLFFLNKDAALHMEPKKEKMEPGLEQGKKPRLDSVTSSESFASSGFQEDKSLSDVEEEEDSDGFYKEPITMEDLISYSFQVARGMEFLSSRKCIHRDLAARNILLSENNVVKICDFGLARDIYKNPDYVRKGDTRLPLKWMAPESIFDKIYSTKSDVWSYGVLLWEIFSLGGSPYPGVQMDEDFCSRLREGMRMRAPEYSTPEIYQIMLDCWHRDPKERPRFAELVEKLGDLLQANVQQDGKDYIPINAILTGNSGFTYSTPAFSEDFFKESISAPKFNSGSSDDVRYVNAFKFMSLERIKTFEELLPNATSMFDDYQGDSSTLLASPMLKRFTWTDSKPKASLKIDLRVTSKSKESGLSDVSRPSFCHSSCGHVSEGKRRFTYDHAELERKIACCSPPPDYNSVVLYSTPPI

## Cc1cc(CCC(=O)O)c(/C=C2\C(=O)Nc3ccccc32)[nH]1
[1]
  IC50: 0.096 µM

## C[C@@H]1O[C@@H](OC[C@H]2O[C@@H](Oc3c(-c4ccc(O)c(O)c4)oc4cc(O)cc(O)c4c3=O)[C@H](O)[C@@H](O)[C@@H]2O)[C@H](O)[C@H](O)[C@H]1O [RUTIN]
[2]
  IC50: 295 µM

## O=C1Nc2ccccc2C1=O
[3]
  inhibition: 35%

## COC(=O)C1=CO[C@@H](C)[C@H]2CN3CC[C@]4(C(=O)Nc5ccccc54)[C@@H]3C[C@H]12
[4]
  IC50: 12.3 µM
[5]
  IC50: 20 µM

## CC(=O)O[C@H]1CC[C@@]2(C)C(=CC[C@@H]3[C@@H]2CC[C@]2(C)C4=C(C#N)C(=N)OC5(C(=O)N(Cc6c(F)cccc6F)c6ccccc65)C4C[C@@H]32)C1 (stereo partly specified)
[6]
  IC50: 4.43 µM
[7]
  IC50: 8.45 µM

## O=C1Nc2ccccc2/C1=C/Nc1ccc(-n2nccn2)cc1
[8]
  IC50: 0.008 µM

## COc1cc[nH]c1/C=C1\C(=O)Nc2ccc([N+](=O)[O-])c(N3CC[C@@H](N)C3)c21
[9]
  IC50: < 10 µM
[10]
  IC50: < 10 µM

## O=C1Cc2cc(O)ccc2N1
[3]
  inhibition: 35%

## CC1(C)CC(=O)C2=C(C1)NC(=S)NC21C(=O)Nc2ccc(Br)cc21 (stereo unspecified)
[11]
  MIC: 500 µg
[12]
  MIC: 500 µg

## O=C1Nc2ccc3ncsc3c2/C1=C/Nc1ccc(S(=O)(=O)NCCOCCO)cc1
[13]
  IC50: 0.00054 µM
[14]
  IC50: 0.012 µM

## O=C1Nc2ccccc2/C1=C/c1cccc(Cl)c1
[2]
  IC50: 150 µM

## Cc1ccc(CN2C(=O)/C(=N/NC(=O)c3ccccc3)c3cc(C)ccc32)cc1
[15]
  MIC: 25 µg/mL (≈ 65.2 µM)

## Cc1ccc(O)c(/C=C2\C(=O)Nc3ccccc32)c1
[2]
  IC50: 195 µM

## CC(=O)O[C@H]1CC[C@@]2(C)C(=CC[C@@H]3[C@@H]2CC[C@]2(C)C4=C(C#N)C(=N)OC5(C(=O)N(Cc6ccc(C)cc6)c6ccccc65)C4C[C@@H]32)C1 (stereo partly specified)
[6]
  IC50: 4.43 µM
[7]
  IC50: 8.45 µM

## O=C1Nc2ncccc2C12CCN(Cc1ccccc1OC(F)(F)F)CC2
[16]
  IC50: 0.05 µM

## Cc1ccc(S(=O)(=O)N2CCN(c3ccc(/C=C4/C(=O)Nc5ccccc54)cc3)CC2)cc1
[11]; Staphylococcus aureus, read-out: MIC
  MIC: 25 µg/mL (≈ 54.4 µM)
[17]
  MIC: 25 µg/mL (≈ 54.4 µM)
[12]; Escherichia coli, read-out: MIC
  MIC: 25 µg/mL (≈ 54.4 µM)
[18]
  MIC: 25 µg/mL (≈ 54.4 µM)

## CN1C(=O)O[C@]2(C[C@H]1c1ccccc1)C(=O)Nc1ccccc12
[19]
  GI50: 2.6 µM
